Results as given in patent publication US20070128217A1 (priority 2003, published 2007).

Columns and labels:
[1] = tested on: control sera (pooled serum of ten healthy LUMC hospital workers; commercial negative donor pooled serum from the Dutch bloodbank); format: binding, human; design: Binding of Control serum LUMC to linear peptides / Binding of Control serum Blood-bank to linear peptides / Binding of Control serum LUMC to looped peptides / Binding of Control Serum Blood-Bank to Looped peptides / Binding of Control serum LUMC to linear peptides of the protein M of SARS-CoV Urbani / Binding of Control serum Blood-bank to linear peptides of the protein M of SARS-CoV Urbani / Binding of Control serum LUMC to looped peptides of the protein M of SARS-CoV Urbani / Binding of Control Serum Blood-Bank to Looped peptides of the protein M of SARS-CoV Urbani: unit not given here
[2] = tested on: rabbit serum obtained by immunizing a rabbit with the SARS-CoV strain Frankfurt 1; format: binding; design: Binding of a rabbit serum to linear peptides / Binding of a rabbit serum to looped peptides / Rabbit serum linear peptides / Rabbit serum looped peptides / Binding of a rabbit serum to linear peptides of protein N of SARS-CoV Urbani (Rabbit serum linear peptides) / Binding of a rabbit serum to looped/cyclic peptides of protein N of SARS-CoV Urbani (Rabbit serum looped peptides): unit not given here
[3] = tested on: recombinant human anti-SARS-CoV antibody 03-018; format: binding; design: Binding of antibody 03-018 to linear peptides of the N protein of SARS-CoV Urbani / Binding of antibody 03-018 to looped/cyclic peptides of the N protein of SARS-CoV Urbani: unit not given here
[4] = tested on: antibodies in sera from SARS patients (sera 1a, 1b, 2, 6, 37, 62, London, SARS-yellow, SARS-green); format: binding, human; design: Binding of serum 6 to linear peptides of protein X1 of SARS-CoV Urbani / Binding of serum 37 to linear peptides of protein X1 of SARS-CoV Urbani / Binding of serum 6 to looped/cyclic peptide (PEPSCAN-ELISA) / Binding of serum 37 to looped/cyclic peptide (PEPSCAN-ELISA) / Binding of serum 37 to looped/cyclic peptides of protein X1 of SARS-CoV Urbani / Binding of serum 6 to linear peptides of protein X2 / Binding of serum 37 to linear peptides of protein X2 / Binding of serum 37 to looped/cyclic peptides of protein X2 of SARS-CoV Urbani / Binding of serum 6 to linear peptides of protein M of SARS-CoV Urbani / Binding of serum 37 to linear peptides of protein M of SARS-CoV Urbani / Binding of serum 6 to looped/cyclic peptides of protein M of SARS-CoV Urbani / Binding of serum 37 to looped/cyclic peptides of protein M of SARS-CoV Urbani / Binding of serum 6 to linear peptides of protein X3 of SARS-CoV Urbani / Binding of serum 37 to linear peptides of protein X3 of SARS-CoV Urbani / Binding of serum 37 to looped/cyclic peptides of protein X3 of SARS-CoV Urbani / Binding of serum 6 to linear peptides of protein X4 of SARS-CoV Urbani / Binding of serum 37 to linear peptides of protein X4 of SARS-CoV Urbani / Binding of serum 37 to looped/cyclic peptides of protein X4 of SARS-CoV Urbani / Binding of serum 6 to linear peptides of protein X5 of SARS-CoV Urbani / Binding of serum 37 to linear peptides of protein X5 of SARS-CoV Urbani / Binding of serum 37 to looped/cyclic peptides of protein X5 of SARS-CoV Urbani / Binding of serum 6 to linear peptides of protein N of SARS-CoV Urbani / Binding of serum 37 to linear peptides of protein N of SARS-CoV Urbani / Binding of serum 6 to linear peptide (PEPSCAN-ELISA) / Binding of serum 1a to looped/cyclic peptides of protein N of SARS-CoV Urbani / Binding of serum 1b to looped/cyclic peptides of protein N of SARS-CoV Urbani / Binding of serum 2 to looped/cyclic peptides of protein N of SARS-CoV Urbani / Binding of serum 6 to looped/cyclic peptides of protein N of SARS-CoV Urbani / Binding of serum 37 to looped/cyclic peptides of protein N of SARS-CoV Urbani / Binding of serum 62 to looped/cyclic peptides of protein N of SARS-CoV Urbani / Binding of serum London to looped/cyclic peptides of protein N of SARS-CoV Urbani / Binding of serum SARS-green to looped/cyclic peptides of protein N of SARS-CoV Urbani: unit not given here

Sequence	Binding of a rabbit serum to linear peptides of protein N of SARS-CoV Urbani (Rabbit serum linear peptides) [2]	Binding of a rabbit serum to looped/cyclic peptides of protein N of SARS-CoV Urbani (Rabbit serum looped peptides) [2]	Binding of antibody 03-018 to linear peptides of the N protein of SARS-CoV Urbani [3]	Binding of antibody 03-018 to looped/cyclic peptides of the N protein of SARS-CoV Urbani [3]	Binding of serum 1a to linear peptides of protein N of SARS-CoV Urbani [4]	Binding of serum 1a to looped/cyclic peptides of protein N of SARS-CoV Urbani [4]	Binding of serum 1b to linear peptides of protein N of SARS-CoV Urbani [4]	Binding of serum 1b to looped/cyclic peptides of protein N of SARS-CoV Urbani [4]	Binding of serum 2 to linear peptides of protein N of SARS-CoV Urbani [4]	Binding of serum 2 to looped/cyclic peptides of protein N of SARS-CoV Urbani [4]	Binding of serum 6 to linear peptides of protein N of SARS-CoV Urbani [4]	Binding of serum 6 to looped/cyclic peptides of protein N of SARS-CoV Urbani [4]	Binding of serum 37 to linear peptides of protein N of SARS-CoV Urbani [4]	Binding of serum 37 to looped/cyclic peptides of protein N of SARS-CoV Urbani [4]	Binding of serum 62 to linear peptides of protein N of SARS-CoV Urbani [4]	Binding of serum 62 to looped/cyclic peptides of protein N of SARS-CoV Urbani [4]	Binding of serum London to linear peptides of protein N of SARS-CoV Urbani [4]	Binding of serum London to looped/cyclic peptides of protein N of SARS-CoV Urbani [4]	Binding of serum SARS-green to looped/cyclic peptides of protein N of SARS-CoV Urbani [4]	Binding of serum SARS-yellow to looped/cyclic peptides of protein N of SARS-CoV Urbani [4]	other results
VTLLPAADMDDFSRQ	0.0	0.0	0.1	0.2	0.3	0.3	0.1	0.1	0.2	0.2	0.1	0.0	0.6	0.1	0.6	0.4	0.6	0.1	0.2	0.2	Control Serum Blood-Bank Looped peptides [1]: 0.1; Control serum Blood-bank linear peptides [1]: 0.5; Control serum LUMC linear peptides [1]: 0.5; Control serum LUMC looped peptides [1]: 0.4; Binding of serum SARS-green to linear peptides of protein N of SARS-CoV Urbani [4]: 0.3; Binding of serum SARS-yellow to linear peptides of protein N of SARS-CoV Urbani [4]: 0.6
VTPSGTWLTYHGAIK	0.1	0.1	0.1	0.2	0.3	0.2	0.1	0.1	0.2	0.2	0.2	0.1	0.7	0.4	0.8	0.3	0.7	0.3	0.0	0.2	Control Serum Blood-Bank Looped peptides [1]: 0.3; Control serum Blood-bank linear peptides [1]: 0.8; Control serum LUMC linear peptides [1]: 0.6; Control serum LUMC looped peptides [1]: 0.3; Binding of serum SARS-green to linear peptides of protein N of SARS-CoV Urbani [4]: 0.5; Binding of serum SARS-yellow to linear peptides of protein N of SARS-CoV Urbani [4]: 0.5
VTQAFGRRGPEQTQG	–	–	0.1	0.2	–	0.3	–	0.2	–	0.2	–	0.1	–	0.4	–	0.3	–	0.3	0.2	0.3	Binding of Control Serum Blood-Bank to Looped peptides [1]: 0.6; Binding of Control serum Blood-bank to linear peptides [1]: 0.8; Binding of Control serum LUMC to linear peptides [1]: 0.7; Binding of Control serum LUMC to looped peptides [1]: 0.5; Recognition of the peptide by the rabbit serum [2]: recognized; Binding of serum 1a to linear peptide (PEPSCAN-ELISA) [4]: 0.3; Binding of serum 1b to linear peptide (PEPSCAN-ELISA) [4]: 0.1; Binding of serum 2 to linear peptide (PEPSCAN-ELISA) [4]: 0.1; Binding of serum 6 to linear peptide (PEPSCAN-ELISA) [4]: 0.2; Binding of serum 37 to linear peptide (PEPSCAN-ELISA) [4]: 0.6; Binding of serum 62 to linear peptide (PEPSCAN-ELISA) [4]: 0.5; Binding of serum London to linear peptide (PEPSCAN-ELISA) [4]: 0.5; Binding of serum SARS-green to linear peptide (PEPSCAN-ELISA) [4]: 0.5; Binding of serum SARS-yellow to linear peptide (PEPSCAN-ELISA) [4]: 0.7
VWVATEGALNTPKDH	0.1	0.4	0.1	0.3	0.2	0.3	0.1	0.3	0.2	0.6	0.2	0.4	0.8	0.6	0.7	0.6	0.6	1.2	0.7	0.6	Binding of Control Serum Blood-Bank to Looped peptides [1]: 0.8; Binding of Control serum Blood-bank to linear peptides [1]: 0.6; Binding of Control serum LUMC to linear peptides [1]: 0.8; Binding of Control serum LUMC to looped peptides [1]: 0.6; Binding of serum SARS-green to linear peptides of protein N of SARS-CoV Urbani [4]: 0.5; Binding of serum SARS-yellow to linear peptides of protein N of SARS-CoV Urbani [4]: 0.6
